In patent US10966978B2, “Dose and regimen for HDM2-p53 interaction inhibitors” (Novartis AG, priority 2016, dated 2021):
Where two headings read alike, the source gives them in different places.

Tested on: patients with advanced TP53 wild-type (WT) leukemias
From the text: Patients with Ph+ ALL who show early markers of relapse in MRD surveillance can be considered for inclusion as long as other therapies such as TKIs are exhausted or cannot be given. • Tumor of the patient is TP53 wt characterized by, at a minimum, no mutations in exons 5, 6, 7 and 8, and the p53 status was obtained from a bone-marrow sample, collected no longer than 3 months before signing the main ICF. Safety and Tolerability Profile of Regimen 1B in Hematological Tumors

COc1ncc(-c2nc3c(n2C(C)C)[C@H](c2ccc(Cl)cc2)N(c2cc(Cl)cn(C)c2=O)C3=O)c(OC)n1 [HDM201, (S)-5-(5-Chloro-1-methyl-2-oxo-1,2-dihydro-pyridin-3-yl)-6-(4-chloro-phenyl)-2-(2,4-dimethoxy-pyrimidin-5-yl)-1-isopropyl-5,6-dihydro-1H-pyrrolo[3,4-d]imidazol-4-one]
AE: Fatigue (Regimen 1A N = 16, All Grades): 4 (25.0) n (%)
AE: Febrile Neutropenia (Regimen 1A N = 16, All Grades): 4 (25.0) n (%)
AE: Gamma-Glutamyltransferase Increased (Regimen 1A N = 16, All Grades): 2 (12.5) n (%)
AE: General Physical Health Deterioration (Regimen 1A N = 16, All Grades): 2 (12.5) n (%)
AE: Gingival Bleeding (Regimen 1A N = 16, All Grades): 2 (12.5) n (%)
AE: Graft Versus Host Disease (Regimen 1A N = 16, All Grades): 1 (6.3) n (%)
AE: Haemoglobin Decreased (Regimen 1A N = 16, All Grades): 1 (6.3) n (%)
AE: Headache (Regimen 1A N = 16, All Grades): 1 (6.3) n (%)
AE: Hyperbilirubinaemia (Regimen 1A N = 16, All Grades): 1 (6.3) n (%)
AE: Hyperglycaemia (Regimen 1A N = 16, All Grades): 1 (6.3) n (%)
AE: Hyperkalaemia (Regimen 1A N = 16, All Grades): 0 n (%)
AE: Hyperphosphataemia (Regimen 1A N = 16, All Grades): 1 (6.3) n (%)
AE: Hyperuricaemia (Regimen 1A N = 16, All Grades): 2 (12.5) n (%)
AE: Hypoalbuminaemia (Regimen 1A N = 16, All Grades): 1 (6.3) n (%)
AE: Hypocalcaemia (Regimen 1A N = 16, All Grades): 2 (12.5) n (%)
AE: Hypokalaemia (Regimen 1A N = 16, All Grades): 0 n (%)
AE: Hypomagnesaemia (Regimen 1A N = 16, All Grades): 1 (6.3) n (%)
AE: Hyponatraemia (Regimen 1A N = 16, All Grades): 1 (6.3) n (%)
AE: Hypophosphataemia (Regimen 1A N = 16, All Grades): 2 (12.5) n (%)
AE: Hypotension (Regimen 1A N = 16, All Grades): 1 (6.3) n (%)
AE: Infection (Regimen 1A N = 16, All Grades): 1 (6.3) n (%)
AE: Infective Glossitis (Regimen 1A N = 16, All Grades): 0 n (%)
AE: Iron Overload (Regimen 1A N = 16, All Grades): 1 (6.3) n (%)
AE: Leukopenia (Regimen 1A N = 16, All Grades): 2 (12.5) n (%)
AE: Lip Oedema (Regimen 1A N = 16, All Grades): 1 (6.3) n (%)
AE: Lipase Increased (Regimen 1A N = 16, All Grades): 3 (18.8) n (%)
AE: Macular Oedema (Regimen 1A N = 16, All Grades): 0 n (%)
AE: Malaise (Regimen 1A N = 16, All Grades): 1 (6.3) n (%)
AE: Mouth Haemorrhage (Regimen 1A N = 16, All Grades): 2 (12.5) n (%)
AE: Nausea (Regimen 1A N = 16, All Grades): 10 (62.5) n (%)
AE: Neutropenia/Neutrophil Count Decreased (Regimen 1A N = 16, All Grades): 6 (37.5) n (%)
AE: Oedema (Regimen 1A N = 16, All Grades): 1 (6.3) n (%)
AE: Oral Disorder (Regimen 1A N = 16, All Grades): 1 (6.3) n (%)
AE: Pain In Extremity (Regimen 1A N = 16, All Grades): 1 (6.3) n (%)
AE: Pancytopenia (Regimen 1A N = 16, All Grades): 0 n (%)
AE: Pneumonia (Regimen 1A N = 16, All Grades): 1 (6.3) n (%)
AE: Pollakiuria (Regimen 1A N = 16, All Grades): 1 (6.3) n (%)
AE: Pyrexia (Regimen 1A N = 16, All Grades): 3 (18.8) n (%)
AE: Rash (Regimen 1A N = 16, All Grades): 1 (6.3) n (%)
AE: Rash Erythematous (Regimen 1A N = 16, All Grades): 1 (6.3) n (%)
AE: Rash Papular (Regimen 1A N = 16, All Grades): 1 (6.3) n (%)
AE: Rectal Haemorrhage (Regimen 1A N = 16, All Grades): 0 n (%)
AE: Renal Failure (Regimen 1A N = 16, All Grades): 0 n (%)
AE: Skin Exfoliation (Regimen 1A N = 16, All Grades): 1 (6.3) n (%)
AE: Stomatitis (Regimen 1A N = 16, All Grades): 1 (6.3) n (%)
AE: Subarachnoid Haemorrhage (Regimen 1A N = 16, All Grades): 1 (6.3) n (%)
AE: Thrombocytopenia/Platelet Count Decreased (Regimen 1A N = 16, All Grades): 8 (50.0) n (%)
AE: Total (Regimen 1A N = 16, All Grades): 15 (93.8) n (%)
AE: Tumour Lysis Syndrome (Regimen 1A N = 16, All Grades): 7 (43.8) n (%)
AE: Vomiting (Regimen 1A N = 16, All Grades): 5 (31.3) n (%)
AE: Weight Decreased (Regimen 1A N = 16, All Grades): 1 (6.3) n (%)
AE: White Blood Cell Count Decreased (Regimen 1A N = 16, All Grades): 1 (6.3) n (%)
AE: Abdominal Discomfort (Regimen 1A N = 16, Grade 3/4): 0 n (%)
AE: Abdominal Pain (Regimen 1A N = 16, Grade 3/4): 0 n (%)
AE: Abdominal Pain Upper (Regimen 1A N = 16, Grade 3/4): 0 n (%)
AE: Acute Kidney Injury (Regimen 1A N = 16, Grade 3/4): 0 n (%)
AE: Amylase Increased (Regimen 1A N = 16, Grade 3/4): 0 n (%)
AE: Anaemia (Regimen 1A N = 16, Grade 3/4): 4 (25.0) n (%)
AE: Arthralgia (Regimen 1A N = 16, Grade 3/4): 0 n (%)
AE: Asthenia (Regimen 1A N = 16, Grade 3/4): 0 n (%)
AE: Atrial Fibrillation (Regimen 1A N = 16, Grade 3/4): 0 n (%)
AE: Atypical Pneumonia (Regimen 1A N = 16, Grade 3/4): 0 n (%)
AE: Balanitis Candida (Regimen 1A N = 16, Grade 3/4): 0 n (%)
AE: Blood Alkaline Phosphatase Increased (Regimen 1A N = 16, Grade 3/4): 0 n (%)
AE: Blood Bilirubin Increased (Regimen 1A N = 16, Grade 3/4): 0 n (%)
AE: Blood Creatinine Increased (Regimen 1A N = 16, Grade 3/4): 0 n (%)
AE: Blood Phosphorus Increased (Regimen 1A N = 16, Grade 3/4): 0 n (%)
AE: Blood Uric Acid Increased (Regimen 1A N = 16, Grade 3/4): 1 (6.3) n (%)
AE: Bone Marrow Failure (Regimen 1A N = 16, Grade 3/4): 0 n (%)
AE: C-Reactive Protein Increased (Regimen 1A N = 16, Grade 3/4): 0 n (%)
AE: Cardiac Failure (Regimen 1A N = 16, Grade 3/4): 0 n (%)
AE: Cellulitis (Regimen 1A N = 16, Grade 3/4): 0 n (%)
AE: Chronic Graft Versus Host Disease (Regimen 1A N = 16, Grade 3/4): 1 (6.3) n (%)
AE: Conjunctival Haemorrhage (Regimen 1A N = 16, Grade 3/4): 0 n (%)
AE: Constipation (Regimen 1A N = 16, Grade 3/4): 0 n (%)
AE: Cough (Regimen 1A N = 16, Grade 3/4): 0 n (%)
AE: Cystitis Viral (Regimen 1A N = 16, Grade 3/4): 0 n (%)
AE: Cytomegalovirus Infection (Regimen 1A N = 16, Grade 3/4): 0 n (%)
AE: Decreased Appetite (Regimen 1A N = 16, Grade 3/4): 0 n (%)
AE: Diarrhoea (Regimen 1A N = 16, Grade 3/4): 0 n (%)
AE: Dyspepsia (Regimen 1A N = 16, Grade 3/4): 0 n (%)
AE: Dyspnoea (Regimen 1A N = 16, Grade 3/4): 1 (6.3) n (%)
AE: Epistaxis (Regimen 1A N = 16, Grade 3/4): 0 n (%)
AE: Fatigue (Regimen 1A N = 16, Grade 3/4): 0 n (%)
AE: Febrile Neutropenia (Regimen 1A N = 16, Grade 3/4): 4 (25.0) n (%)
AE: Gamma-Glutamyltransferase Increased (Regimen 1A N = 16, Grade 3/4): 1 (6.3) n (%)
AE: General Physical Health Deterioration (Regimen 1A N = 16, Grade 3/4): 0 n (%)
AE: Gingival Bleeding (Regimen 1A N = 16, Grade 3/4): 0 n (%)
AE: Graft Versus Host Disease (Regimen 1A N = 16, Grade 3/4): 0 n (%)
AE: Haemoglobin Decreased (Regimen 1A N = 16, Grade 3/4): 0 n (%)
AE: Headache (Regimen 1A N = 16, Grade 3/4): 0 n (%)
AE: Hyperbilirubinaemia (Regimen 1A N = 16, Grade 3/4): 0 n (%)
AE: Hyperglycaemia (Regimen 1A N = 16, Grade 3/4): 0 n (%)
AE: Hyperkalaemia (Regimen 1A N = 16, Grade 3/4): 0 n (%)
AE: Hyperphosphataemia (Regimen 1A N = 16, Grade 3/4): 0 n (%)
AE: Hyperuricaemia (Regimen 1A N = 16, Grade 3/4): 1 (6.3) n (%)
AE: Hypoalbuminaemia (Regimen 1A N = 16, Grade 3/4): 0 n (%)
AE: Hypocalcaemia (Regimen 1A N = 16, Grade 3/4): 0 n (%)
AE: Hypokalaemia (Regimen 1A N = 16, Grade 3/4): 0 n (%)
AE: Hypomagnesaemia (Regimen 1A N = 16, Grade 3/4): 0 n (%)
AE: Hyponatraemia (Regimen 1A N = 16, Grade 3/4): 0 n (%)
AE: Hypophosphataemia (Regimen 1A N = 16, Grade 3/4): 2 (12.5) n (%)
AE: Hypotension (Regimen 1A N = 16, Grade 3/4): 0 n (%)
AE: Infection (Regimen 1A N = 16, Grade 3/4): 1 (6.3) n (%)
AE: Infective Glossitis (Regimen 1A N = 16, Grade 3/4): 0 n (%)
